Measured values reported in article PMC10848769, “Tartrolon E, a secondary metabolite of a marine symbiotic bacterium, is a potent inhibitor of asexual and sexual Plasmodium falciparum” (Antimicrobial Agents and Chemotherapy, 2024).
Where two headings read alike, the source gives them in different places.

Tests used:
P. falciparum clone D6 [1] = settings: by EC50 or, for ART, RSA, well-characterized susceptibilities; cited from earlier work
P. falciparum clone HB3 [2] = settings: by EC50 or, for ART, RSA, well-characterized susceptibilities; cited from earlier work
P. falciparum clone Dd2 [3] = settings: by EC50 or, for ART, RSA, well-characterized susceptibilities; cited from earlier work
P. falciparum clone NF54 [4] = settings: by EC50 or, for ART, RSA, well-characterized susceptibilities; cited from earlier work
[5] = tested on: P. falciparum clone IPC 3445; parameters: method as in BEI, Didier Menard; settings: by EC50 or, for ART, RSA, well-characterized susceptibilities, ref BEI, Didier Menard; cited from earlier work
P. falciparum clone V1/S [6] = settings: by EC50 or, for ART, RSA, well-characterized susceptibilities; cited from earlier work
P. falciparum clone 3D7 [7] = settings: by EC50 or, for ART, RSA, well-characterized susceptibilities; cited from earlier work
[8] = tested on: P. falciparum clone TM90C2A; settings: by EC50 or, for ART, RSA, well-characterized susceptibilities; cited from earlier work
P. falciparum clone GMC1 [9] = settings: by EC50 or, for ART, RSA, well-characterized susceptibilities; cited from earlier work
[10] = tested on: P. falciparum clone IPC 5202; parameters: method as in BEI, Didier Menard; settings: by EC50 or, for ART, RSA, well-characterized susceptibilities, ref BEI, Didier Menard; cited from earlier work
P. falciparum clone 7G8 [11] = settings: by EC50 or, for ART, RSA, well-characterized susceptibilities; cited from earlier work
[12] = tested on: P. falciparum 3D7 asexual blood stages; assay: Standard 72-hour inhibitor-response (parasite proliferation) assay; assay type: cell-based; settings: Plasmodium falciparum, read-out: 3D7 EC50
P. falciparum clone D6 [13] = assay: Standard growth inhibition assay, Pf clone panel; assay type: cell-based; settings: Plasmodium falciparum; clone D6, Sierra Leone; read-out: EC50 (nM) (95% CI)
Description: (§1) A diverse panel of P. falciparum clones, collected from four continents with varying genetic backgrounds and well-characterized susceptibilities to novel and existing antimalarials, was treated with TrtE and DHA in standard growth inhibition assays. […] Additional studies are needed to determine whether there is any similarity in mechanism between TrtE and DHA.

P. falciparum clone Dd2 [14] = assay: Standard growth inhibition assay, Pf clone panel; assay type: cell-based; settings: Plasmodium falciparum; clone Dd2, SE Asia; read-out: EC50 (nM) (95% CI)
Description: as §1

P. falciparum clone 3D7 [15] = assay: Standard growth inhibition assay, Pf clone panel; assay type: cell-based; settings: Plasmodium falciparum; clone 3D7, Netherlands; read-out: EC50 (nM) (95% CI)
Description: as §1

P. falciparum clone GMC1 [16] = assay: Standard growth inhibition assay, Pf clone panel; assay type: cell-based; settings: Plasmodium falciparum; clone GMC1, Goa, India; read-out: EC50 (nM) (95% CI)
Description: as §1

[17] = tested on: P. falciparum clone IPC 5202; assay: Standard growth inhibition assay, Pf clone panel; assay type: cell-based; settings: Plasmodium falciparum; clone IPC 5202, Battambang, Cambodia; read-out: EC50 (nM) (95% CI)
Description: as §1

P. falciparum clone V1/S [18] = assay: Standard growth inhibition assay, Pf clone panel; assay type: cell-based; settings: Plasmodium falciparum, Vietnam, read-out: EC50 (nM) (95% CI)
Description: as §1

P. falciparum clone HB3 [19] = assay: Standard growth inhibition assay, Pf clone panel; assay type: cell-based; settings: Plasmodium falciparum; clone HB3, Honduras; read-out: EC50 (nM) (95% CI)
Description: as §1

[20] = tested on: P. falciparum clone TM90C2A; assay: Standard growth inhibition assay, Pf clone panel; assay type: cell-based; settings: Plasmodium falciparum, Thailand, read-out: EC50 (nM) (95% CI)
Description: as §1

[21] = tested on: P. falciparum clone D10 w/ yDHODH; assay: Standard growth inhibition assay, Pf clone panel; assay type: cell-based; settings: Plasmodium falciparum, D10, read-out: EC50 (nM) (95% CI)
Description: as §1

[22] = tested on: P. falciparum clone IPC 3445; assay: Standard growth inhibition assay, Pf clone panel; assay type: cell-based; settings: Plasmodium falciparum; clone IPC 3445, Palin, Cambodia; read-out: EC50 (nM) (95% CI)
Description: as §1

P. falciparum clone NF54 [23] = assay: Standard growth inhibition assay, Pf clone panel; assay type: cell-based; settings: Plasmodium falciparum; clone NF54, Netherlands; read-out: EC50 (nM) (95% CI)
Description: as §1

P. falciparum clone 7G8 [24] = assay: Standard growth inhibition assay, Pf clone panel; assay type: cell-based; settings: Plasmodium falciparum; clone 7G8, Brazil; read-out: EC50 (nM) (95% CI)
Description: as §1

[25] = tested on: P. falciparum clone D10 w/ yDHODH; settings: by EC50 or, for ART, RSA, well-characterized susceptibilities; cited from earlier work
[26] = tested on: human liver cell line HepG2; assay: In vitro cytotoxicity assay; assay type: cell-based; settings: for EC50: Homo sapiens, HepG2, read-out: EC50 (µM) (95% CI) HepG2
Description: (§2) In preliminary experiments to evaluate cytotoxicity to mammalian cells, the murine leukemia L1210 cell line and the human liver cell line HepG2 were grown under identical conditions alongside Pf 3D7. These were treated with TrtE, the chemotherapeutic methotrexate, and DSM265, an inhibitor of parasite dihydroorotate dehydrogenase ([19]).

[27] = tested on: murine leukemia L1210 cell line; assay: In vitro cytotoxicity assay; settings: for EC50: Mus musculus, L1210, read-out: EC50 (µM) (95% CI) L1210
Description: as §2

Pf 3D7 = assay: Parasite growth alongside mammalian cytotoxicity assays; assay type: cell-based; settings: Plasmodium falciparum; 3D7, grown under identical conditions alongside mammalian cells; read-out: EC50 (µM) (95% CI) 3D7
Description: as §2

[28] = tested on: P. falciparum gametocytes; parameters: method as in PMID 24206914; settings: read-out: gametocytocidal potency of comparator antimalarials; cited from earlier work

SMILES | Clone susceptibility to antimalarial (R/S) (P. falciparum clone D6 [1]) | Clone susceptibility to antimalarial (R/S) (P. falciparum clone HB3 [2]) | Clone susceptibility to antimalarial (R/S) (P. falciparum clone Dd2 [3]) | Clone susceptibility to antimalarial (R/S) (P. falciparum clone NF54 [4]) | Clone susceptibility to antimalarial (R/S) [5] | Clone susceptibility to antimalarial (R/S) (P. falciparum clone V1/S [6]) | Clone susceptibility to antimalarial (R/S) (P. falciparum clone 3D7 [7]) | Clone susceptibility to antimalarial (R/S) [8] | Clone susceptibility to antimalarial (R/S) (P. falciparum clone GMC1 [9]) | Clone susceptibility to antimalarial (R/S) [10] | Clone susceptibility to antimalarial (R/S) (P. falciparum clone 7G8 [11]) | EC50 ([12]; 3D7, 72-hour assay) [nM] | Clone susceptibility to antimalarial (R/S) [25] | also measured
CC1(C)N=C(N)N=C(N)N1c1ccc(Cl)cc1 [CG, cycloguanil] | S | S | R | S | R | R | S | R | R | R | R |  |  | 
C[C@H]1[C@@H](O)O[C@@H]2O[C@@]3(C)CC[C@H]4[C@H](C)CC[C@@H]1[C@@]24OO3 [DHA, dihydroartemisinin] |  |  |  |  |  |  |  |  |  |  |  | 0.129 |  | EC50 (P. falciparum clone D6 [13]): 0.17 nM; EC50 (P. falciparum clone Dd2 [14]): 0.14 nM; EC50 (P. falciparum clone 3D7 [15]): 0.11 nM; EC50 (P. falciparum clone GMC1 [16]): 0.21 nM; EC50 [17]: 0.94 nM; EC50 (P. falciparum clone V1/S [18]): 0.084 nM; EC50 (P. falciparum clone HB3 [19]): 0.16 nM; EC50 [20]: 0.091 nM; EC50 [21]: 0.12 nM; EC50 [22]: 0.92 nM; EC50 (P. falciparum clone NF54 [23]): 0.15 nM; EC50 (P. falciparum clone 7G8 [24]): 0.095 nM
Cc1cc(Nc2ccc3ccccc3c2)n2ncnc2n1 [DSM1] | S | S | S | S | S | S | S | S | S | S | S |  | R | 
Cc1cc(Nc2ccc(S(F)(F)(F)(F)F)cc2)n2nc(C(C)(F)F)nc2n1 [DSM265] |  |  |  |  |  |  |  |  |  |  |  | 5 |  | Selectivity index (EC50 of HepG2/EC50 3D7) ([26]; HepG2 vs 3D7): 1,980; EC50 [26]: 9.9 µM; Selectivity index (EC50 of L1210/EC50 3D7) ([27]; L1210 vs 3D7): > 4,000; EC50 [27]: > 20 µM; EC50 (Pf 3D7): 0.005 µM
OC(c1cc(C(F)(F)F)nc2c(C(F)(F)F)cccc12)C1CCCCN1 (stereo not shown) [MQ, mefloquine] | S | S | R | S | R | S | S | R | S | R | S |  | S | 
CN(Cc1cnc2nc(N)nc(N)c2n1)c1ccc(C(=O)N[C@@H](CCC(=O)O)C(=O)O)cc1 [Methotrexate] |  |  |  |  |  |  |  |  |  |  |  |  |  | EC50 [26]: > 1 µM; EC50 [27]: 0.012 µM; EC50 (Pf 3D7): 0.047 µM
C=C[C@H]1C[N@@]2CC[C@H]1C[C@H]2[C@H](O)c1ccnc2ccc(OC)cc12 [QN, quinine] | S | S | R | S | R | R | S |  |  | R | R |  |  | 
COc1ncnc(NS(=O)(=O)c2ccc(N)cc2)c1OC [SDX, sulfadoxine] | S | S | R | R | R |  | R |  | R | R |  |  |  | 
C[C@@H]1CC[C@H]2[C@@H](C)C(=O)O[C@@H]3O[C@@]4(C)CC[C@@H]1[C@]32OO4 [artemisinin] | S | S | S | S | R | S | S | S | S | R | S | 6 | S | 
O=C1C(O)=C([C@H]2CC[C@H](c3ccc(Cl)cc3)CC2)C(=O)c2ccccc21 [atovaquone] | S | S | S | S | S | S | S | S | S | S | S | 1 | R | 
CCN(CC)CCCC(C)Nc1ccnc2cc(Cl)ccc12 (stereo not shown) [chloroquine] | S | S | R | S | R | R | S | R | R | R | R |  | S | EC50 ([12]; 3D7, 72 h): 6 nM
COc1cc(NC(C)CCCN)c2ncccc2c1 (stereo not shown) [primaquine] |  |  |  |  |  |  |  |  |  |  |  |  |  | EC50 [28]: > 40000 nM
CCc1nc(N)nc(N)c1-c1ccc(Cl)cc1 [pyrimethamine] | S | R | R | S | R | R | S | R | R | R | R | 19 |  | 
COc1ccc2nc3cc(Cl)ccc3c(Nc3cc(CN4CCCC4)c(O)c(CN4CCCC4)c3)c2n1 [pyronaridine] |  |  |  |  |  |  |  |  |  |  |  |  |  | EC50 [28]: 4260 nM
